Results published in ChEMBL document CHEMBL1201862, “PubChem BioAssay data set” (2004).
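In this assay, cells in 96-well plates receive the compound at five concentrations for 48 hours. Endpoints are linearly interpolated between the surrounding concentrations. At the GI50, growth is halved.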 Activity calls are given as the source filed them. Cut-off read from the data, not from the text of the source: active = GI50 up to about 1.1 µM and inactive = higher.

Assays:
Assay in all cases: NCI-60 cell line screen, 48 h
OVCAR-3 = system: OVCAR-3
NCI-H23 = system: NCI-H23
Hs-578T = system: Hs-578T
MCF7 = system: MCF7
ACHN = system: ACHN
SF-268 = system: SF-268
SR = system: SR
SW-620 = system: SW-620
U-251 = system: U-251
BT-549 = system: BT-549
A498 = system: A498
786-0 = system: 786-0
EKVX = system: EKVX
HOP-92 = system: HOP-92
SK-OV-3 = system: SK-OV-3
HOP-62 = system: HOP-62
HCT-116 = system: HCT-116
OVCAR-4 = system: OVCAR-4
RXF 393 = system: RXF 393
LOX IMVI = system: LOX IMVI

SMILES | GI50 (OVCAR-3) | GI50 (NCI-H23) | GI50 (Hs-578T) | GI50 (MCF7) | GI50 (ACHN) | GI50 (SF-268) | GI50 (SR) | GI50 (SW-620) | GI50 (U-251) | GI50 (BT-549) | GI50 (A498) | GI50 (786-0) | GI50 (EKVX) | GI50 (HOP-92) | GI50 (SK-OV-3) | GI50 (HOP-62) | GI50 (HCT-116) | GI50 (OVCAR-4) | GI50 (RXF 393) | GI50 (LOX IMVI)
Nc1ccccc1SC(C[N+](=O)[O-])c1ccc2c(c1)OCO2 (configuration not stated) | 3.28 µM (inactive) | 3.08 µM (inactive) | 5.64 µM (inactive) | 2.99 µM (inactive) | 6.46 µM (inactive) | 7.55 µM (inactive) | 1.91 µM (inactive) | 2.31 µM (inactive) | 2.64 µM (inactive) | 4.22 µM (inactive) | 8.39 µM (inactive) | 1.66 µM (inactive) | 3.89 µM (inactive) | 15.6 µM (inactive) | 4.54 µM (inactive) | 2.12 µM (inactive) | 1.81 µM (inactive) | 11.6 µM (inactive) | 1.8 µM (inactive) | 1.75 µM (inactive)
O=[N+]([O-])C(/C=C(\Cl)[N+](=O)[O-])=C(Nc1ccccc1)Nc1ccccc1 | 5.19 µM (inactive) | 7.96 µM (inactive) | 8.59 µM (inactive) | 0.843 µM (active) | 13.2 µM (inactive) | 14.3 µM (inactive) | 2.6 µM (inactive) | 2.79 µM (inactive) | 14.3 µM (inactive) | 7.24 µM (inactive) | 17.9 µM (inactive) | 3.7 µM (inactive) | 13.5 µM (inactive) | 4.69 µM (inactive) | 20.1 µM (inactive) |  | 1.98 µM (inactive) | 6.76 µM (inactive) | 4.65 µM (inactive) | 16 µM (inactive)
O=c1c(=O)c2cscc2c1=O | 5.62 µM (inactive) | 5.61 µM (inactive) | 9.75 µM (inactive) | 6.24 µM (inactive) | 4.69 µM (inactive) | 4.4 µM (inactive) | 0.137 µM (active) | 0.989 µM (active) | 4.75 µM (inactive) | 4.85 µM (inactive) | > 25 µM (inactive) | 5.22 µM (inactive) | 5.11 µM (inactive) | 5.47 µM (inactive) | > 25 µM (inactive) | 5.15 µM (inactive) | 4.9 µM (inactive) | 4.99 µM (inactive) | 4.74 µM (inactive) | 4.92 µM (inactive)
CCOC(=O)/C=C/C(Br)=C(Br)/C=C/C(=O)OCC | 12.1 µM (inactive) | 14.5 µM (inactive) | 29.2 µM (inactive) | 7.93 µM (inactive) | 12.3 µM (inactive) | 18 µM (inactive) | 7.8 µM (inactive) |  | 14.6 µM (inactive) | 5.62 µM (inactive) | 26.9 µM (inactive) | 3.01 µM (inactive) | 17.9 µM (inactive) | 19.1 µM (inactive) | 20.3 µM (inactive) | 17.9 µM (inactive) | 2.77 µM (inactive) | 17.7 µM (inactive) | 8.93 µM (inactive) | 2.52 µM (inactive)
O=C(CC(=O)Nc1ccccc1)NNC(Sc1ccccc1)c1cc(/N=N/c2ccc(Br)cc2)ccc1O (configuration not stated) | 0.394 µM (active) | 2.83 µM (inactive) | > 10 µM (inactive) | 1.78 µM (inactive) | 2.47 µM (inactive) | 0.587 µM (active) | 0.353 µM (active) | 0.931 µM (active) | 6.31 µM (inactive) | 5.12 µM (inactive) | 1.91 µM (inactive) | 0.802 µM (active) | 8.83 µM (inactive) | 4.51 µM (inactive) | 4.21 µM (inactive) | 3.08 µM (inactive) | 0.448 µM (active) | 1.56 µM (inactive) | 2.37 µM (inactive) | 2.49 µM (inactive)
CCCC(=O)OC(OC(=O)CCC)c1ccc([N+](=O)[O-])o1 | 20.9 µM (inactive) | 22.1 µM (inactive) | 35.5 µM (inactive) | 16.9 µM (inactive) | 20.5 µM (inactive) | 65.6 µM (inactive) | 18 µM (inactive) | 20 µM (inactive) | 34.3 µM (inactive) | 47.2 µM (inactive) | > 100 µM (inactive) | 18.3 µM (inactive) | 26.1 µM (inactive) | 22.9 µM (inactive) | > 100 µM (inactive) | 62.8 µM (inactive) | 16.9 µM (inactive) |  | 17.2 µM (inactive) | 21.7 µM (inactive)
CN(/N=C(\C(=O)O)c1ccccc1)C1=NCCN1 | > 100 µM (inactive) | > 100 µM (inactive) | > 100 µM (inactive) | > 100 µM (inactive) | > 100 µM (inactive) | > 100 µM (inactive) | > 100 µM (inactive) | > 100 µM (inactive) |  | 47.2 µM (inactive) | > 100 µM (inactive) | > 100 µM (inactive) | 83.6 µM (inactive) | > 100 µM (inactive) | > 100 µM (inactive) | > 100 µM (inactive) | > 100 µM (inactive) | > 100 µM (inactive) | > 100 µM (inactive) | > 100 µM (inactive)
C=CCc1ccccc1C1CC2(C(=O)OC)OC1C(C(=O)OC)=C2C(=O)OC (configuration not stated) | > 10 µM (inactive) | > 10 µM (inactive) | > 10 µM (inactive) | > 10 µM (inactive) | > 10 µM (inactive) | > 10 µM (inactive) | > 10 µM (inactive) | > 10 µM (inactive) | > 10 µM (inactive) | > 10 µM (inactive) | > 10 µM (inactive) | > 10 µM (inactive) | > 10 µM (inactive) |  | > 10 µM (inactive) | > 10 µM (inactive) | > 10 µM (inactive) | > 10 µM (inactive) | > 10 µM (inactive) | > 10 µM (inactive)
COc1ccc(C(CC(=O)C(C)(C)CN2CCCCC2)SCCS(=O)(=O)O)cc1 (configuration not stated) | 12.8 µM (inactive) | 25.1 µM (inactive) | 55.3 µM (inactive) | 28.7 µM (inactive) | 33.2 µM (inactive) |  | 14.3 µM (inactive) | 32.6 µM (inactive) | 62.1 µM (inactive) | 45.7 µM (inactive) | 26.2 µM (inactive) | 18.3 µM (inactive) | 30.4 µM (inactive) | 17.8 µM (inactive) | 60.7 µM (inactive) | 77.8 µM (inactive) | 29 µM (inactive) | 34 µM (inactive) | 40.4 µM (inactive) | 
COc1ccc(C[n+]2cccc(O)c2)cc1 | > 100 µM (inactive) | > 100 µM (inactive) | > 100 µM (inactive) | > 100 µM (inactive) | > 100 µM (inactive) | > 100 µM (inactive) | > 100 µM (inactive) | > 100 µM (inactive) | > 100 µM (inactive) | > 100 µM (inactive) | > 100 µM (inactive) | > 100 µM (inactive) | > 100 µM (inactive) | > 100 µM (inactive) | > 100 µM (inactive) | > 100 µM (inactive) | > 100 µM (inactive) |  | > 100 µM (inactive) | 
CCCCCCCCCCCCc1ccsc1-c1ccc(-c2ccc(-c3sccc3CCCCCCCCCCCC)s2)s1 | > 100 µM (inactive) | > 100 µM (inactive) | > 100 µM (inactive) | > 100 µM (inactive) | > 100 µM (inactive) | > 100 µM (inactive) | > 100 µM (inactive) | > 100 µM (inactive) | > 100 µM (inactive) | > 100 µM (inactive) | > 100 µM (inactive) | > 100 µM (inactive) | > 100 µM (inactive) | > 100 µM (inactive) | > 100 µM (inactive) | > 100 µM (inactive) | > 100 µM (inactive) |  | > 100 µM (inactive) | > 100 µM (inactive)
O=C(NC(Nc1ccc(F)c(Cl)c1)(C(F)(F)F)C(F)(F)F)OCc1ccccc1 | 17.3 µM (inactive) | 71.4 µM (inactive) | 51.2 µM (inactive) | 19.4 µM (inactive) | 17.7 µM (inactive) | 62.7 µM (inactive) | 11 µM (inactive) | 61.7 µM (inactive) | 29.2 µM (inactive) | 14.7 µM (inactive) | 37.2 µM (inactive) | 18.3 µM (inactive) | 26.4 µM (inactive) | 23.2 µM (inactive) | 26 µM (inactive) | 30.3 µM (inactive) | 47.5 µM (inactive) |  | 43.3 µM (inactive) | 64.7 µM (inactive)
O=c1n(CCCN2CCOCC2)nc2n1-c1ccc3ccccc3c1SC2 | 95.7 µM (inactive) |  | 37.6 µM (inactive) | 76.7 µM (inactive) |  |  | 71.6 µM (inactive) | 37.5 µM (inactive) | 57.9 µM (inactive) | 30.7 µM (inactive) | 89.9 µM (inactive) | 16 µM (inactive) | 89.7 µM (inactive) | > 100 µM (inactive) | 63.2 µM (inactive) | 52.2 µM (inactive) | 40.8 µM (inactive) | 56.9 µM (inactive) | 57.7 µM (inactive) | 26.9 µM (inactive)
Cc1cc(C)nc(NS(=O)(=O)c2ccc(NC(=O)c3cc([N+](=O)[O-])cc([N+](=O)[O-])c3)cc2)n1 | 30.5 µM (inactive) | > 100 µM (inactive) | > 100 µM (inactive) | 55 µM (inactive) |  | 44.4 µM (inactive) | 0.0755 µM (active) | > 100 µM (inactive) | 84.3 µM (inactive) | > 100 µM (inactive) | > 100 µM (inactive) | > 100 µM (inactive) |  | 42.5 µM (inactive) | > 100 µM (inactive) | > 100 µM (inactive) | > 100 µM (inactive) | 22.9 µM (inactive) | > 100 µM (inactive) | 26.8 µM (inactive)
O/N=C1/Nc2ccccc2C(=S)N2CSCC12 (configuration not stated) | > 100 µM (inactive) |  | > 100 µM (inactive) | 52.5 µM (inactive) | > 100 µM (inactive) | 78 µM (inactive) | 22.9 µM (inactive) | 35.6 µM (inactive) | > 100 µM (inactive) | > 100 µM (inactive) | 68.7 µM (inactive) | 58.2 µM (inactive) | > 100 µM (inactive) |  | > 100 µM (inactive) | > 100 µM (inactive) | 43.6 µM (inactive) | > 100 µM (inactive) | > 100 µM (inactive) | 62.8 µM (inactive)
